# Measurements: PubChem BioAssay (NCI)
#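 These data come from cells grown in 96-well plates and exposed to compound for 48 hours at five concentrations. GI50 = concentration required for 50% inhibition of growth. TGI marks complete inhibition of growth.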
# Key:
# Experiment in all cases: inhibition of tumour cell growth, NCI panel, 48 h
# OVCAR-5 ovarian = test system: OVCAR-5 ovarian
# U251 CNS = test system: U251 CNS
# MDA-MB-435 = test system: MDA-MB-435
# SNB-78 CNS = test system: SNB-78 CNS
# SF-268 CNS = test system: SF-268 CNS
# LOX IMVI melanoma = test system: LOX IMVI melanoma
# CCRF-CEM leukemia = test system: CCRF-CEM leukemia
# KM20L2 colon = test system: KM20L2 colon
# SNB-19 CNS = test system: SNB-19 CNS
# HOP-92 NSCLC = test system: HOP-92 NSCLC
# TK-10 renal = test system: TK-10 renal
# T-47D breast = test system: T-47D breast
# DLD-1 colon = test system: DLD-1 colon
# SK-MEL-2 melanoma = test system: SK-MEL-2 melanoma
# SF-539 CNS = test system: SF-539 CNS
# UO-31 renal = test system: UO-31 renal
# RXF-631 renal = test system: RXF-631 renal
# RPMI-8226 leukemia = test system: RPMI-8226 leukemia
# MOLT-4 leukemia = test system: MOLT-4 leukemia
# 786-0 renal = test system: 786-0 renal
# SK-OV-3 ovarian = test system: SK-OV-3 ovarian
# HCT-15 colon = test system: HCT-15 colon
# A498 renal = test system: A498 renal
# KM12 colon = test system: KM12 colon
# A549 NSCLC = test system: A549 NSCLC
# OVCAR-8 ovarian = test system: OVCAR-8 ovarian
# NCI-H23 lung = test system: NCI-H23 lung
# BT-549 breast = test system: BT-549 breast
# EKVX NSCLC = test system: EKVX NSCLC
# MDA-MB-231 breast = test system: MDA-MB-231 breast
# SK-MEL-28 melanoma = test system: SK-MEL-28 melanoma
# M19-MEL melanoma = test system: M19-MEL melanoma
# DMS 114 small cell lung = test system: DMS 114 small cell lung
# DU-145 prostate = test system: DU-145 prostate
# SW-620 colon = test system: SW-620 colon
# HCT-116 colon = test system: HCT-116 colon
# MALME-3M melanoma = test system: MALME-3M melanoma
# PC-3 prostate = test system: PC-3 prostate
# CAKI-1 renal = test system: CAKI-1 renal
# UACC-62 melanoma = test system: UACC-62 melanoma
# NCI-H460 lung = test system: NCI-H460 lung
# SF-295 CNS = test system: SF-295 CNS
# NCI/ADR-RES ovarian = test system: NCI/ADR-RES ovarian
# SK-MEL-5 melanoma = test system: SK-MEL-5 melanoma
# SNB-75 CNS = test system: SNB-75 CNS
# SN12C renal = test system: SN12C renal
# DMS 273 small cell lung = test system: DMS 273 small cell lung
# NCI-H226 lung = test system: NCI-H226 lung
# HS 578T breast = test system: HS 578T breast
# RXF 393 renal = test system: RXF 393 renal
# MCF7 breast = test system: MCF7 breast
# UACC-257 melanoma = test system: UACC-257 melanoma
# K-562 leukemia = test system: K-562 leukemia
# COLO 205 colon = test system: COLO 205 colon
# ACHN renal = test system: ACHN renal
# M14 melanoma = test system: M14 melanoma
# XF 498 CNS = test system: XF 498 CNS
# IGROV1 ovarian = test system: IGROV1 ovarian
# HT29 colon = test system: HT29 colon
# OVCAR-4 ovarian = test system: OVCAR-4 ovarian
# LXFL 529 NSCLC = test system: LXFL 529 NSCLC
# HCC-2998 colon = test system: HCC-2998 colon
# OVCAR-3 ovarian = test system: OVCAR-3 ovarian
# HL-60(TB) leukemia = test system: HL-60(TB) leukemia
# SR leukemia = test system: SR leukemia
# HOP-18 NSCLC = test system: HOP-18 NSCLC
# HOP-62 NSCLC = test system: HOP-62 NSCLC
# NCI-H522 lung = test system: NCI-H522 lung
smiles,measurement,setting,value
CN(C)CC1CCCC1=O (centres undefined),TGI,OVCAR-5 ovarian,12.5 µM
same,TGI,U251 CNS,14.9 µM
same,TGI,MDA-MB-435,8.77 µM
same,TGI,SNB-78 CNS,6.12 µM
same,TGI,SF-268 CNS,13.6 µM
same,TGI,LOX IMVI melanoma,4 µM
same,TGI,CCRF-CEM leukemia,0.533 µM
same,TGI,KM20L2 colon,5.32 µM
same,TGI,SNB-19 CNS,50 µM
same,TGI,HOP-92 NSCLC,2.97 µM
same,TGI,TK-10 renal,8.04 µM
same,TGI,T-47D breast,15.2 µM
same,TGI,DLD-1 colon,1.03 µM
same,TGI,SK-MEL-2 melanoma,19.3 µM
same,TGI,SF-539 CNS,14.8 µM
same,TGI,UO-31 renal,22.9 µM
same,TGI,RXF-631 renal,0.377 µM
same,TGI,RPMI-8226 leukemia,1.93 µM
same,TGI,MOLT-4 leukemia,0.875 µM
same,TGI,786-0 renal,16 µM
same,TGI,SK-OV-3 ovarian,28.6 µM
same,TGI,HCT-15 colon,2.56 µM
same,TGI,A498 renal,27.3 µM
same,TGI,KM12 colon,5.85 µM
same,TGI,A549 NSCLC,49 µM
same,TGI,OVCAR-8 ovarian,8.94 µM
same,TGI,NCI-H23 lung,11.7 µM
same,TGI,BT-549 breast,13.8 µM
same,TGI,EKVX NSCLC,3.59 µM
same,TGI,MDA-MB-231 breast,7.06 µM
same,TGI,SK-MEL-28 melanoma,6.48 µM
same,TGI,M19-MEL melanoma,2.33 µM
same,TGI,DMS 114 small cell lung,2.33 µM
same,TGI,DU-145 prostate,> 46.9 µM
same,TGI,SW-620 colon,0.517 µM
same,TGI,HCT-116 colon,2.78 µM
same,TGI,MALME-3M melanoma,2.57 µM
same,TGI,PC-3 prostate,22.6 µM
same,TGI,CAKI-1 renal,0.373 µM
same,TGI,UACC-62 melanoma,11.2 µM
same,TGI,NCI-H460 lung,34.6 µM
same,TGI,SF-295 CNS,35.8 µM
same,TGI,NCI/ADR-RES ovarian,55.7 µM
same,TGI,SK-MEL-5 melanoma,6.71 µM
same,TGI,SNB-75 CNS,9.6 µM
same,TGI,SN12C renal,2.85 µM
same,TGI,DMS 273 small cell lung,3.28 µM
same,TGI,NCI-H226 lung,30.5 µM
same,TGI,HS 578T breast,56.2 µM
same,TGI,RXF 393 renal,6.63 µM
same,TGI,MCF7 breast,7.03 µM
same,TGI,UACC-257 melanoma,3.5 µM
same,TGI,K-562 leukemia,0.549 µM
same,TGI,COLO 205 colon,1.84 µM
same,TGI,ACHN renal,7.08 µM
same,TGI,M14 melanoma,3.46 µM
same,TGI,XF 498 CNS,2.11 µM
same,TGI,IGROV1 ovarian,21.5 µM
same,TGI,HT29 colon,2.06 µM
same,TGI,OVCAR-4 ovarian,5.58 µM
same,TGI,LXFL 529 NSCLC,1.4 µM
same,TGI,HCC-2998 colon,4.44 µM
same,TGI,OVCAR-3 ovarian,2.91 µM
same,TGI,HL-60(TB) leukemia,0.374 µM
same,TGI,SR leukemia,0.289 µM
same,TGI,HOP-18 NSCLC,3.16 µM
same,TGI,HOP-62 NSCLC,31.3 µM
C=C1CCC2[C@@H](CCC3[C@]2(C)CCC[C@]3(C)C(=O)OC)[C@@H]1CC=O (some centres undefined),GI50,OVCAR-5 ovarian,50.8 µM
same,TGI,OVCAR-5 ovarian,> 100 µM
same,GI50,U251 CNS,46 µM
same,TGI,U251 CNS,> 100 µM
same,TGI,SNB-78 CNS,> 100 µM
same,TGI,SF-268 CNS,> 100 µM
same,TGI,CCRF-CEM leukemia,64.2 µM
same,TGI,KM20L2 colon,62.7 µM
same,GI50,SNB-19 CNS,47.5 µM
same,TGI,SNB-19 CNS,> 100 µM
same,TGI,HOP-92 NSCLC,48.9 µM
same,GI50,TK-10 renal,31 µM
same,TGI,TK-10 renal,77.5 µM
same,TGI,DLD-1 colon,> 100 µM
same,TGI,SK-MEL-2 melanoma,91.7 µM
same,TGI,SF-539 CNS,37.6 µM
same,GI50,UO-31 renal,31.3 µM
same,TGI,UO-31 renal,> 100 µM
same,GI50,RXF-631 renal,44.9 µM
same,TGI,RXF-631 renal,> 100 µM
same,GI50,RPMI-8226 leukemia,19.1 µM
same,TGI,RPMI-8226 leukemia,57.6 µM
same,GI50,MOLT-4 leukemia,23.6 µM
same,TGI,MOLT-4 leukemia,59.9 µM
same,TGI,786-0 renal,> 100 µM
same,GI50,SK-OV-3 ovarian,> 100 µM
same,TGI,SK-OV-3 ovarian,> 100 µM
same,TGI,HCT-15 colon,81.2 µM
same,GI50,A498 renal,87.8 µM
same,TGI,A498 renal,> 100 µM
same,GI50,KM12 colon,39.3 µM
same,TGI,KM12 colon,> 100 µM
same,GI50,A549 NSCLC,62 µM
same,TGI,A549 NSCLC,> 100 µM
same,TGI,OVCAR-8 ovarian,49.2 µM
same,TGI,NCI-H23 lung,66.5 µM
same,TGI,EKVX NSCLC,77.6 µM
same,TGI,SK-MEL-28 melanoma,91.8 µM
same,TGI,M19-MEL melanoma,49 µM
same,TGI,DMS 114 small cell lung,53.2 µM
same,TGI,SW-620 colon,37.6 µM
same,TGI,HCT-116 colon,30.7 µM
same,TGI,MALME-3M melanoma,87.7 µM
same,GI50,CAKI-1 renal,35.8 µM
same,TGI,CAKI-1 renal,> 100 µM
same,TGI,UACC-62 melanoma,64.5 µM
same,TGI,NCI-H460 lung,41.3 µM
same,GI50,SF-295 CNS,50.2 µM
same,TGI,SF-295 CNS,> 100 µM
same,TGI,SK-MEL-5 melanoma,32.5 µM
same,GI50,SNB-75 CNS,37.1 µM
same,TGI,SNB-75 CNS,> 100 µM
same,TGI,SN12C renal,> 100 µM
same,TGI,DMS 273 small cell lung,50.1 µM
same,TGI,NCI-H226 lung,> 100 µM
same,GI50,NCI-H522 lung,> 100 µM
same,TGI,NCI-H522 lung,> 100 µM
same,TGI,UACC-257 melanoma,68.9 µM
same,GI50,K-562 leukemia,26 µM
same,TGI,K-562 leukemia,77.4 µM
same,TGI,COLO 205 colon,> 100 µM
same,TGI,ACHN renal,82 µM
same,TGI,M14 melanoma,40.2 µM
same,TGI,XF 498 CNS,61.6 µM
same,TGI,IGROV1 ovarian,> 100 µM
same,TGI,HT29 colon,81 µM
same,TGI,OVCAR-4 ovarian,85.2 µM
same,TGI,LXFL 529 NSCLC,> 100 µM
same,TGI,HCC-2998 colon,> 100 µM
same,TGI,OVCAR-3 ovarian,41.9 µM
same,TGI,HL-60(TB) leukemia,55.9 µM
same,TGI,HOP-18 NSCLC,86 µM
same,GI50,HOP-62 NSCLC,> 100 µM
same,TGI,HOP-62 NSCLC,> 100 µM
c1ccc(P(=Nc2ccccc2N=P(c2ccccc2)(c2ccccc2)c2ccccc2)(c2ccccc2)c2ccccc2)cc1,TGI,OVCAR-5 ovarian,7.53 µM
same,TGI,U251 CNS,11.6 µM
same,TGI,SNB-78 CNS,19.9 µM
same,TGI,SF-268 CNS,> 100 µM
same,TGI,LOX IMVI melanoma,13.9 µM
same,TGI,CCRF-CEM leukemia,13 µM
same,TGI,KM20L2 colon,10.3 µM
same,TGI,SNB-19 CNS,16.9 µM
same,TGI,HOP-92 NSCLC,0.573 µM
same,TGI,DLD-1 colon,13 µM
same,TGI,SF-539 CNS,10.4 µM
same,TGI,UO-31 renal,6.35 µM
same,TGI,RXF-631 renal,6.64 µM
same,TGI,RPMI-8226 leukemia,12.6 µM
same,TGI,786-0 renal,11.3 µM
same,TGI,SK-OV-3 ovarian,3.52 µM
same,TGI,A498 renal,5.56 µM
same,TGI,KM12 colon,12.8 µM
same,TGI,A549 NSCLC,12.6 µM
same,TGI,OVCAR-8 ovarian,12.2 µM
same,TGI,NCI-H23 lung,2.25 µM
same,TGI,EKVX NSCLC,15 µM
same,TGI,SK-MEL-28 melanoma,> 100 µM
same,TGI,M19-MEL melanoma,12.1 µM
same,TGI,DMS 114 small cell lung,2.68 µM
same,TGI,SW-620 colon,14.3 µM
same,TGI,HCT-116 colon,9.64 µM
same,TGI,CAKI-1 renal,3.72 µM
same,TGI,UACC-62 melanoma,11.7 µM
same,TGI,NCI-H460 lung,11 µM
same,TGI,SF-295 CNS,10.7 µM
same,TGI,SK-MEL-5 melanoma,1.95 µM
same,TGI,SNB-75 CNS,2.09 µM
same,TGI,SN12C renal,10.9 µM
same,TGI,DMS 273 small cell lung,10 µM
same,TGI,NCI-H226 lung,1.38 µM
same,TGI,RXF 393 renal,9 µM
same,TGI,NCI-H522 lung,2.24 µM
same,TGI,UACC-257 melanoma,12.5 µM
same,TGI,K-562 leukemia,11.2 µM
same,TGI,COLO 205 colon,3.04 µM
same,TGI,ACHN renal,10.2 µM
same,TGI,M14 melanoma,15.7 µM
same,TGI,XF 498 CNS,0.543 µM
same,TGI,IGROV1 ovarian,22.8 µM
same,TGI,HT29 colon,11.6 µM
same,TGI,OVCAR-4 ovarian,14.9 µM
same,TGI,LXFL 529 NSCLC,12.1 µM
same,TGI,HCC-2998 colon,12.8 µM
same,TGI,OVCAR-3 ovarian,0.783 µM
same,TGI,HL-60(TB) leukemia,3.43 µM
same,TGI,HOP-18 NSCLC,0.844 µM
same,TGI,HOP-62 NSCLC,2.73 µM
